{
  "source": "patent US11918551B2",
  "about": "“Methods of treating seizure disorders and Prader-Willi syndrome” (Ovid Therapeutics, Inc., priority 2017, dated 2024)",
  "assay": "plasma pharmacokinetics (elimination half-life, dose proportionality of Cmax and AUC)",
  "settings": "in the dose range 5 mg-500 mg",
  "text": "“PK” refers to the pharmacokinetic profile. Cmax is defined as the highest plasma drug concentration estimated during an experiment (ng/ml). Tmax is defined as the time when Cmax is estimated (min). AUC0-∞ is the total area under the plasma drug concentration-time curve, from drug administration until the drug is eliminated (ng·hr/ml or μg·hr/ml). The area under the curve is governed by clearance. Clearance is defined as the volume of blood or plasma that is totally cleared of its content of drug per unit time (ml/min).",
  "data": [
    {"smiles": "N[C@H]1C[C@@H](C(=O)O)CC1=C(F)F", "values": [
      {"measurement": "AUCs dose proportionality", "result": "greater than proportional increase"}
    ]}
  ]
}
